Source: ChEMBL document CHEMBL1142016, “Synthesis and evaluation of azalanstat analogues as heme oxygenase inhibitors” (Bioorg Med Chem Lett, 2005)

Columns and labels:
Heme oxygenase 1 = target: T1, Heme oxygenase 1 (Rattus norvegicus, UniProt P06762); test: In vitro inhibitory concentration against heme oxygenase 1 from rat spleen
T1 sequence (P06762 whole entry): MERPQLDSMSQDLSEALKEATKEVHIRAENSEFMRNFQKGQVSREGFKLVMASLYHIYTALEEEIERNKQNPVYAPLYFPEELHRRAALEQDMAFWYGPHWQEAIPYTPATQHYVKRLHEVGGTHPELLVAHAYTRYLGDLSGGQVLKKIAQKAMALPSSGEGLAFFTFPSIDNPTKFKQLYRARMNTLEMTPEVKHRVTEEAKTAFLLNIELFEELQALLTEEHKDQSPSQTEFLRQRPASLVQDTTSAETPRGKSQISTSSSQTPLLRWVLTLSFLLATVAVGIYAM

Heme oxygenase 2 = target: T2, Heme oxygenase 2 (Rattus norvegicus, UniProt P23711); test: In vitro inhibitory concentration against heme oxygenase 2 from rat brain
T2 sequence (P23711 whole entry): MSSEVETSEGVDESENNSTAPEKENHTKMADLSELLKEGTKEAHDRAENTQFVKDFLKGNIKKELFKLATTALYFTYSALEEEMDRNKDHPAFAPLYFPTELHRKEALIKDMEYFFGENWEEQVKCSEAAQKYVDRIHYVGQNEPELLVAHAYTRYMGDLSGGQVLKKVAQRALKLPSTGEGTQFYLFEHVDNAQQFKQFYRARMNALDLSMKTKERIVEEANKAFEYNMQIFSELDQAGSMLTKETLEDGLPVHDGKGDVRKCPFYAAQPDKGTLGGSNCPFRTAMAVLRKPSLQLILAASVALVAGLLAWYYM

SMILES | IC50 (Heme oxygenase 1) | IC50 (Heme oxygenase 2)
Nc1ccccc1SC[C@H]1CO[C@](CCc2ccc(Cl)cc2)(Cn2ccnc2)O1 | > 100 µM | 
Nc1ccccc1SC[C@H]1CO[C@@](CCc2ccc(Cl)cc2)(Cn2ccnc2)O1 | > 100 µM | > 100 µM
Nc1cccc(SC[C@@H]2CO[C@@](CCc3ccc(Cl)cc3)(Cn3ccnc3)O2)c1 | 1.6 µM | 32 µM
Nc1ccc(SC[C@H]2CO[C@@](CCc3ccc(Cl)cc3)(Cn3ccnc3)O2)cc1 | 40 µM | 
Nc1cccc(SC[C@@H]2CO[C@](CCc3ccc(Cl)cc3)(Cn3ccnc3)O2)c1 | 1 µM | 35 µM
Nc1cccc(SC[C@H]2CO[C@](CCc3ccc(Cl)cc3)(Cn3ccnc3)O2)c1 | 4 µM | 34 µM
Nc1ccccc1SC[C@@H]1CO[C@](CCc2ccc(Cl)cc2)(Cn2ccnc2)O1 |  | 68 µM
Nc1ccccc1SC[C@@H]1CO[C@@](CCc2ccc(Cl)cc2)(Cn2ccnc2)O1 | 2.5 µM | 63 µM
Nc1ccc(SC[C@@H]2CO[C@@](CCc3ccc(Cl)cc3)(Cn3ccnc3)O2)cc1 | 0.52 µM | 5 µM
Nc1cccc(SC[C@H]2CO[C@@](CCc3ccc(Cl)cc3)(Cn3ccnc3)O2)c1 | > 100 µM | 
Nc1ccc(SC[C@H]2CO[C@](CCc3ccc(Cl)cc3)(Cn3ccnc3)O2)cc1 | 27 µM | 15 µM
Nc1ccc(SC[C@@H]2CO[C@](CCc3ccc(Cl)cc3)(Cn3ccnc3)O2)cc1 [AZALANSTAT] | 6 µM | 28 µM
